Assay results reported in ChEMBL document CHEMBL1201862, “PubChem BioAssay data set” (2004).
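96-well plates; 48 h exposure; 5 concentrations. Endpoints by linear interpolation between flanking doses. Not reached: highest tested concentration assigned. GI50 = concentration required for 50% inhibition of growth.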 The source made the active and inactive calls. Cut-off read from the data, not from the text of the source: active = GI50 up to about 1.1 µM and inactive = higher.

Experiments:
Assay in all cases: NCI tumour cell line growth inhibition, 48 h
NCI-H23 = tested on: NCI-H23
RPMI-8226 = tested on: RPMI-8226
CCRF-CEM = tested on: CCRF-CEM
A498 = tested on: A498
U-251 = tested on: U-251
OVCAR-5 = tested on: OVCAR-5
UACC-62 = tested on: UACC-62
TK-10 = tested on: TK-10
SF-295 = tested on: SF-295
IGROV-1 = tested on: IGROV-1
A549 = tested on: A549
HCC 2998 = tested on: HCC 2998
SN12C = tested on: SN12C
M14 = tested on: M14
HT-29 = tested on: HT-29
NCI-H522 = tested on: NCI-H522
SK-OV-3 = tested on: SK-OV-3
HOP-62 = tested on: HOP-62

Compound	GI50 (NCI-H23)	GI50 (RPMI-8226)	GI50 (CCRF-CEM)	GI50 (A498)	GI50 (U-251)	GI50 (OVCAR-5)	GI50 (UACC-62)	GI50 (TK-10)	GI50 (SF-295)	GI50 (IGROV-1)	GI50 (A549)	GI50 (HCC 2998)	GI50 (SN12C)	GI50 (M14)	GI50 (HT-29)	GI50 (NCI-H522)	GI50 (SK-OV-3)	GI50 (HOP-62)
CCc1cccc(C(C)CC)c1NC(=O)CC1C(=O)Nc2ccccc2[S+]1[O-] (stereo not drawn)	58.2 µM (inactive)	31.3 µM (inactive)	24.8 µM (inactive)	37.2 µM (inactive)	14.9 µM (inactive)	33.1 µM (inactive)	10 µM (inactive)	> 100 µM (inactive)	> 100 µM (inactive)	19.9 µM (inactive)	31.8 µM (inactive)	> 100 µM (inactive)	91.2 µM (inactive)	22 µM (inactive)	23.1 µM (inactive)			
Nc1ccccc1S(=O)(=O)N(CC(=O)O)c1ccccc1	> 100 µM (inactive)	> 100 µM (inactive)	> 100 µM (inactive)	> 100 µM (inactive)	> 100 µM (inactive)	> 100 µM (inactive)	> 100 µM (inactive)	> 100 µM (inactive)		> 100 µM (inactive)	> 100 µM (inactive)		> 100 µM (inactive)	> 100 µM (inactive)	> 100 µM (inactive)	> 100 µM (inactive)	> 100 µM (inactive)	
Nc1c(Cl)ncnc1NCCCCCCCCCCCCNc1ncnc(Cl)c1N	< 0.01 µM (active)	1.5 µM (inactive)	0.162 µM (active)	6.05 µM (inactive)	0.0857 µM (active)	< 0.01 µM (active)	2.05 µM (inactive)	4.6 µM (inactive)	1.01 µM (active)	1.55 µM (inactive)	2.07 µM (inactive)	3.72 µM (inactive)	3.13 µM (inactive)	3.19 µM (inactive)	7.03 µM (inactive)		4.18 µM (inactive)	0.254 µM (active)
COC[C@@H](/N=C/N1CCc2cc(OC)c(OC)cc2[C@@H]1C)C(C)(C)C	> 100 µM (inactive)	> 100 µM (inactive)	> 100 µM (inactive)		> 100 µM (inactive)		> 100 µM (inactive)	> 100 µM (inactive)	> 100 µM (inactive)	> 100 µM (inactive)	> 100 µM (inactive)		> 100 µM (inactive)	> 100 µM (inactive)	79.8 µM (inactive)	> 100 µM (inactive)	> 100 µM (inactive)	> 100 µM (inactive)
Cc1ccc(S(=O)(=O)NC2CCCCO2)cc1 (stereo not drawn)	> 100 µM (inactive)	> 100 µM (inactive)	> 100 µM (inactive)	> 100 µM (inactive)	> 100 µM (inactive)	> 100 µM (inactive)	> 100 µM (inactive)			> 100 µM (inactive)	> 100 µM (inactive)	> 100 µM (inactive)	> 100 µM (inactive)	> 100 µM (inactive)	> 100 µM (inactive)	> 100 µM (inactive)	> 100 µM (inactive)	> 100 µM (inactive)
Cn1cnc([N+](=O)[O-])c1Sc1nc2cccnc2s1	> 10 µM (inactive)	19.2 µM (inactive)		40.9 µM (inactive)	24 µM (inactive)	47.2 µM (inactive)	17.5 µM (inactive)	15.7 µM (inactive)	> 100 µM (inactive)	17.5 µM (inactive)	34 µM (inactive)	16.7 µM (inactive)	17.8 µM (inactive)	13.7 µM (inactive)	21.3 µM (inactive)		51.3 µM (inactive)	> 100 µM (inactive)
O=C(NC1CCC[C@H]1OC(=O)c1ccccc1)c1ccccc1 (stereo partly drawn)	31 µM (inactive)		> 100 µM (inactive)	33.1 µM (inactive)	> 100 µM (inactive)	> 100 µM (inactive)	50.9 µM (inactive)	> 100 µM (inactive)	> 100 µM (inactive)	> 100 µM (inactive)	40.4 µM (inactive)		66.4 µM (inactive)	> 100 µM (inactive)	39.7 µM (inactive)		43.2 µM (inactive)	
Cc1ccc(C)c(NC(=O)c2cccc([N+](=O)[O-])c2O)c1	16.3 µM (inactive)	5.71 µM (inactive)	> 100 µM (inactive)	24 µM (inactive)	23.9 µM (inactive)	87.7 µM (inactive)	5.74 µM (inactive)		18.4 µM (inactive)	22.2 µM (inactive)	25.5 µM (inactive)	28.3 µM (inactive)	27.2 µM (inactive)	55.6 µM (inactive)	26.1 µM (inactive)	23.3 µM (inactive)	29.9 µM (inactive)	15.8 µM (inactive)
Cc1cc(O)nc(NNC(C#N)c2ccc([N+](=O)[O-])cc2)n1 (stereo not drawn)	> 100 µM (inactive)	> 100 µM (inactive)	> 100 µM (inactive)		> 100 µM (inactive)	> 100 µM (inactive)	> 100 µM (inactive)	> 100 µM (inactive)	> 100 µM (inactive)	76.9 µM (inactive)	> 100 µM (inactive)		> 100 µM (inactive)	> 100 µM (inactive)	> 100 µM (inactive)	> 100 µM (inactive)	> 100 µM (inactive)	> 100 µM (inactive)
COc1cc2c(c(OC)c1OC)-c1ccc(SC)c(=O)cc1[C@@H](NC(=O)c1ccc([N+](=O)[O-])cc1)CC2	< 0.01 µM (active)	< 0.0025 µM (active)	< 0.0025 µM (active)	0.00632 µM (active)	0.025 µM (active)	0.00485 µM (active)	0.00853 µM (active)	3.13 µM (inactive)	< 0.0025 µM (active)	0.0126 µM (active)	0.025 µM (active)	0.00588 µM (active)	0.00957 µM (active)	< 0.0025 µM (active)	0.1 µM (active)		< 0.0025 µM (active)	< 0.0025 µM (active)
CCN(CC)CCNC(=O)c1ccccc1Nc1c(Cl)cccc1Cl	18.2 µM (inactive)	12.2 µM (inactive)	14.1 µM (inactive)		6.56 µM (inactive)	7.55 µM (inactive)	17.1 µM (inactive)	12.1 µM (inactive)		19.1 µM (inactive)	17 µM (inactive)	6.82 µM (inactive)	13.7 µM (inactive)	18.1 µM (inactive)	6.15 µM (inactive)		16.7 µM (inactive)	11.3 µM (inactive)
CC(=O)OCC(OC(C)=O)C(OC(C)=O)C(OC(C)=O)C(=O)CNn1c(-c2ccccc2Cl)nc2ccc(Br)cc2c1=O (stereo not drawn)	> 100 µM (inactive)	27 µM (inactive)	42.5 µM (inactive)	55.7 µM (inactive)	87.9 µM (inactive)	> 100 µM (inactive)	30.6 µM (inactive)		> 100 µM (inactive)		> 100 µM (inactive)		36.3 µM (inactive)	> 100 µM (inactive)	96.4 µM (inactive)	33.2 µM (inactive)	> 100 µM (inactive)	> 100 µM (inactive)
C=Cc1ccc(C)[n+](C[Si](C)(C)O[Si](C)(C)C[n+]2cc(C=C)ccc2C)c1	> 100 µM (inactive)	> 100 µM (inactive)	> 100 µM (inactive)		> 100 µM (inactive)	> 100 µM (inactive)	> 100 µM (inactive)	> 100 µM (inactive)	> 100 µM (inactive)	> 100 µM (inactive)	71.8 µM (inactive)	> 100 µM (inactive)	> 100 µM (inactive)	> 100 µM (inactive)	> 100 µM (inactive)	> 100 µM (inactive)	> 100 µM (inactive)	> 100 µM (inactive)
N#CC(C(=N/O)/C(=N/O)C(C#N)c1ccc(Cl)cc1)c1ccc(Cl)cc1 (stereo not drawn)	92.5 µM (inactive)	40.5 µM (inactive)		> 100 µM (inactive)	> 100 µM (inactive)	> 100 µM (inactive)	91.4 µM (inactive)	> 100 µM (inactive)	> 100 µM (inactive)	> 100 µM (inactive)	> 100 µM (inactive)	84.1 µM (inactive)	> 100 µM (inactive)	> 100 µM (inactive)	> 100 µM (inactive)		> 100 µM (inactive)	> 100 µM (inactive)
Cc1c(C(=O)Nc2ccc(Cl)cc2)nc(N)nc1-c1cccc(Cl)c1	> 100 µM (inactive)		> 100 µM (inactive)		> 100 µM (inactive)	> 100 µM (inactive)	> 100 µM (inactive)		> 100 µM (inactive)	> 100 µM (inactive)	74.5 µM (inactive)	61.9 µM (inactive)	> 100 µM (inactive)	55.7 µM (inactive)	36.7 µM (inactive)		> 100 µM (inactive)	> 100 µM (inactive)
O=C1NC2(CCCCC2)C2=C1CCCCC2	> 100 µM (inactive)		> 100 µM (inactive)	> 100 µM (inactive)	> 100 µM (inactive)	> 100 µM (inactive)	> 100 µM (inactive)	> 100 µM (inactive)	> 100 µM (inactive)	> 100 µM (inactive)	> 100 µM (inactive)		> 100 µM (inactive)	> 100 µM (inactive)	> 100 µM (inactive)	> 100 µM (inactive)	> 100 µM (inactive)	> 100 µM (inactive)
O=C(CCc1nnc2s/c(=C\c3ccccc3[N+](=O)[O-])c(=O)n12)Nc1cc(Cl)c(Cl)cc1Cl	33.2 µM (inactive)		24.4 µM (inactive)	20.4 µM (inactive)	16.9 µM (inactive)	34.1 µM (inactive)	40.4 µM (inactive)	37.1 µM (inactive)	18.7 µM (inactive)	69.5 µM (inactive)	30.5 µM (inactive)	38.5 µM (inactive)	24.6 µM (inactive)	32.5 µM (inactive)	35.2 µM (inactive)	38.3 µM (inactive)	56.6 µM (inactive)	23.1 µM (inactive)
